Assay results as given in patent US20110251251A1, “POLYMORPH II OF AN ANTIFUNGAL COMPOUND” (FERRER INTERNACIONAL, S.A, priority 2008, published 2011).

What was measured:
Type in all cases: physicochemical
[1] = Determination of apparent density and compacted density (Stampf STAV 2003 volumeter); details: for Compacted density: weight/final volume after 2500 strokes; for Apparent density: weight/initial volume
Experimental: The determination of apparent and compacted densities was carried out with a Stampf STAV 2003 volumeter equipped with a 100-mL glass volumetric flask.
• (i) The flask was filled with a volume between 50 and 100 mL of test sample. • (ii) The volume occupied before the test (mL) was recorded. • (iii) 2500 strokes were performed with the volumeter. • (iv) The volume occupied after the test (mL) was recorded. • (v) The amount of analyzed sample (g) was weighed.
• (i) Apparent density (g/mL)=weight/initial volume • (ii) Compacted density (g/mL)=weight/final volume

[2] = Stability of polymorph II (humidity, temperature, polymorphic transition)
Experimental: The start of endothermic peak temperature occurred at 437.6° K, but the first recorded weight loss began at 449° K from DTA analysis. Polymorph II placed in a furnace at 423° K started decomposition after 2 hours.

[3] = DTA / thermogravimetric analysis (weight loss)
Experimental: The necessary amounts were carefully weighed for completing ¾ parts of the 70-μl Al2O3 crucible provided with a perforated lid that was hermetically sealed. Then, the crucible was placed into the furnace and the experiment started. The samples were heated from […] at a rate of 5° C./min under a N2 stream, the flow rate being 80 mL/min. Mass loss rate was calculated in relation to baseline by horizontal tangent plot. […] The start of endothermic peak temperature occurred at 437.6° K, but the first recorded weight loss began at 449° K from DTA analysis. Polymorph II placed in a furnace at 423° K started decomposition after 2 hours.

Row | Compacted density [1] | Compacted density ([1]; listed as polymorph II) | Apparent density [1] | Apparent density ([1]; listed as polymorph II) | Stability in 1-month test ([2]; 1-month test at ambient temperature or humidity) | Stability after 1 day ([2]; 1 day at 25° C./80 RH) | Transition from II to I ([2]; during 1-month test) | Stability at high temperature compared with polymorph I ([2]; high temperatures (higher than 80° C.)) | Stability against humidity ([2]; humidity) | Time to start of decomposition ([2]; placed in a furnace at 423° K) | Stability at temperature ([2]; temperature below 423° K) | Temperature at which first recorded weight loss began [3] | Compacted density ([1]; listed as Polymorph 1) | Compacted density ([1]; listed as polymorph I) | Apparent density ([1]; listed as Polymorph 1) | Apparent density ([1]; listed as polymorph I) | Structure (SMILES)
1 | 0.53 g/mL | 0.53 g/mL | 0.39 g/mL | 0.39 g/mL | remained stable | remained stable | No transition from II to I was observed | more stable at high temperature | stable | 2 h | stable | 449 ° K | – | – | – | – | Clc1ccc([C@H](Cn2ccnc2)OCc2csc3c(Cl)cccc23)c(Cl)c1 [Polymorph II, arasertaconazole mononitrate]
2 | – | – | – | – | – | – | – | – | – | – | – | – | 1.08 g/mL | 1.08 g/mL | 0.78 g/mL | 0.78 g/mL | Clc1ccc([C@H](Cn2ccnc2)OCc2csc3c(Cl)cccc23)c(Cl)c1 [Polymorph I, arasertaconazole mononitrate]
